This is an account of results in paper PMC4016822 (Molecular bioSystems, 2014).

Data set [1] relates to non-cancer WI38 fibroblast cell line. Briefly: MTT proliferation assay in WI38 fibroblasts. In kind it is cell-based. Conditions: for effect on WI38 proliferation: compared with the NSCLC lines. In general terms: Formazan colour is commonly taken as a measure of viable cells.
Data set [2] concerns NSCLC cancer cell lines H1299, A459, H460. Briefly: MTT proliferation assay, NSCLC cell panel. Format: cell-based, Human. To be noted: for EC50: Homo sapiens.
Data set [3] has as its system H460 NSCLC human xenograft. Briefly: H460 NSCLC human xenograft model, tumor growth. In kind it is in vivo, NOD/SCID mice. To be noted: for median tumor volume: day 24, i.p. daily; for median tumor volume / tumor weight smaller than vehicle: losartan 50 mg/kg, astemizole 10 mg/kg; for tumor weight smaller than vehicle: last day of study, i.p. daily, p<0.01. (In general: A xenograft is tissue or cells of one species grown in another, often human tumour cells in immunodeficient mice.)

The conditions of data set [4]: mouse, in vivo.
Data set [5] deals with H460. The data set is described as follows: MTT proliferation assay in H460 cells. In kind it is cell-based, Human. Conditions: 3 days.
For data set [6], the system named is H460 NSCLC human xenograft. Briefly: Histopathology of resected tumors, mitotic index. In kind it is in vivo, NOD/SCID mice.

Entries after “also recorded” stand apart in the source; their conditions may differ.

As usually defined, the EC50 is the midpoint of the concentration-response curve. The low end stands for a more potent agent, the high end for a less potent agent. Consider `Cc1nc(Nc2ncc(C(=O)Nc3c(C)cccc3Cl)s2)cc(N2CCN(CCO)CC2)n1` [Dasatinib], for which the EC50 entry in data set [1] (WI38, MTT, 3 days) was “sub-micromolar”.
Turning to `C=C(c1ccc(C(=O)O)cc1)c1cc2c(cc1C)C(C)(C)CCC2(C)C` [Bexarotene], the “effect on WI38 proliferation” value in data set [1] is reported as “weaker effect on WI38 proliferation”. This molecule also had an EC50 in data set [2] of around 50 µM.
Regarding `COc1ccc(CCN2CCC(Nc3nc4ccccc4n3Cc3ccc(F)cc3)CC2)cc1` [Astemizole], in data set [3] (astemizole group n = 9, smallest vehicle tumor 3.2 g), the “number of mice with tumors that weighed less than 3.2 g” value was “Three”. Besides, in data set [3], the median tumor volume was 2,810 mm^3 and the “tumor weight smaller than vehicle” value was 15%. Also, in data set [4], the “animal's body weight” value is reported as “no significant alteration”.
As to `CS(=O)(=O)CCNCc1ccc(-c2ccc3ncnc(Nc4ccc(OCc5cccc(F)c5)c(Cl)c4)c3c2)o1` [Lapatinib], the concentration giving a half-maximal response (EC50) in data set [2] lay within 30 to 40 µM.
As for `CN1C[C@H](C(=O)N[C@]2(C)O[C@@]3(O)[C@@H]4CCCN4C(=O)[C@H](Cc4ccccc4)N3C2=O)C=C2c3cccc4[nH]cc(c34)C[C@H]21` [Ergotamine], the EC50 in data set [5] was 26 ± 1 µM. In addition, in data set [1], the “effect on WI38 proliferation” value is reported as “significantly less effect on WI38”.
For `CCCCc1nc(Cl)c(CO)n1Cc1ccc(-c2ccccc2-c2nn[nH]n2)cc1` [Losartan], in data set [2] (concentrations up to 100 μM), the cytotoxicity result was “very little cytotoxicity”. Also, in data set [3], the median tumor volume is listed as 2,463 mm^3 and the “tumor weight smaller than vehicle” value worked out at 50%. The “number of mice with tumors that weigh less than 2.5 g” value in data set [3] (losartan group n = 10, none of the vehicle) is recorded as “Four”. Moreover, in data set [6] (histopathology of resected tumors), the “G2M arrest in the cell cycle” value was “significant propensity to cause G2M arrest; also recorded: induced more significant G2M arrest”. Further, the “mitotic index (MI)” value in data set [6] (ratio of mitotic to non-mitotic cells in tumor tissue, vehicle 7) was found to be 18. Moreover, the “animal's body weight” value in data set [4] is listed as “no significant alteration”.
